Columns and labels:
[1] = test system: ICAM-1 induction in BEAS2B cells; experiment: Poly I:C-induced ICAM-1 induction in BEAS2B cells; type: cell-based, human; details: Homo sapiens, BEAS-2B, read-out: PolyIC/ICAM1 IC50 BEAS2B
Procedure, shortened: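 Human bronchial epithelial BEAS2B cells were pre-incubated with compound for 2 hr, then transfected with 1 μg/mL poly I:C. After 18 hr, surface ICAM-1 was measured by cell-based ELISA (OD450-655) and normalized to crystal violet cell counts (OD595). IC50 came from inhibition versus vehicle across the concentration-response curve.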

[2] = molecular target: T1, p38 MAPKα isoform (MAPK14) (Homo sapiens, UniProt Q16539); experiment: Enzyme inhibition assay (FRET, Z-LYTE), p38 MAPKα via MAPKAP-K2 activation; type: biochemical; details: read-out: Enzyme Inhibition IC50 p38α
T1 construct: purchased Invitrogen
T1 sequence (Q16539 whole entry, canonical isoform): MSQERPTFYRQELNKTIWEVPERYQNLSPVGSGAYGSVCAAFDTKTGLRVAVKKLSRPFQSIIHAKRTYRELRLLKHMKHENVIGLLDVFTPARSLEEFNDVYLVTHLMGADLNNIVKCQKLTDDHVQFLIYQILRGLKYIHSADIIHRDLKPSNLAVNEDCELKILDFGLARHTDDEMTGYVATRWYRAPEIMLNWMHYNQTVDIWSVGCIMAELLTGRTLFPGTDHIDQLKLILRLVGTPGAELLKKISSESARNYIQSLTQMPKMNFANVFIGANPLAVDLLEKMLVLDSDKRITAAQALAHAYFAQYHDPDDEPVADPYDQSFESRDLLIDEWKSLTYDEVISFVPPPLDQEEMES
Procedure, shortened: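 Recombinant p38 MAPKα was preincubated with compound for 2 h at RT. Its activity was measured indirectly through activation/phosphorylation of downstream MAPKAP-K2, with a Z-LYTE FRET peptide read-out (coumarin/fluorescein ratio) after a 1 h development step. IC50 came from concentration-response curves of percent inhibition versus an uninhibited control.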

Balb/c mice = experiment: LPS-induced neutrophil accumulation in mice; type: in vivo; details: for Neutrophil numbers in BAL / Neutrophil numbers in BAL (% inhibition): intra tracheal
Experimental: LPS-Induced Neutrophil Accumulation in Mice
Non-fasted Balb/c mice were dosed by the intra tracheal route with either vehicle, or the test substance at the indicated times (within the range 2-8 hr) before stimulation of the inflammatory response by application of an LPS challenge. At T=0, mice were placed into an exposure chamber and exposed to LPS. After a further 8 hr the animals were anesthetized, their tracheas cannulated and BALF extracted by infusing and then withdrawing from their lungs 1.0 mL of PBS via the tracheal catheter. Total and differential white cell counts in the BALF samples were measured using a Neubaur haemocytometer. Cytospin smears of the BALF samples were prepared by centrifugation at 200 rpm for 5 min at RT and stained using a DiffQuik stain system (Dade Behring). Cells were counted using oil immersion microscopy.

[3] = test system: Differentiated U937 cells; experiment: Cell viability MTT assay; type: cell-based, human; details: negative = apparent increase in viability; for MTT Assay (Viability) 4 h d-U937, percentage loss of cell viability: 4 hr in 5% FCS; for MTT Assay (Viability) 24 h d-U937, percentage loss of cell viability: 24 h in 10% FCS
Procedure, shortened: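 Differentiated U937 cells pre-incubated with compound either 4 hr in 5% FCS or 24 h in 10% FCS, then 1 hr MTT. Formazan dissolved in DMSO, absorbance at 550 nm. Percentage viability loss relative to 0.5% DMSO vehicle; apparent increases appear as negative percentages.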

[4] = test system: TNFα release in THP-1 cells; experiment: LPS-induced TNFα release in THP-1 cells; type: cell-based, human; details: Homo sapiens
Procedure, shortened: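 Human monocytic THP-1 cells stimulated with 3 μg/mL E. coli LPS for 4 hr; supernatant TNFα measured by sandwich ELISA. Inhibition at each concentration versus vehicle control, IC50 from concentration-response curve.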

[5] = Table 6, 0.2 mg/mL, 8 h pre-dose

| Structure (SMILES) | IC50 [1] [nM] | IC50 [2] [nM] | Neutrophil numbers in BAL (Balb/c mice; 0.05 mg/mL, 2 hr pre-dose) | Neutrophil numbers in BAL (% inhibition) (Balb/c mice; 0.05 mg/mL, 2 hr pre-dose) [%] | Neutrophil numbers in BAL (Balb/c mice; 0.2 mg/mL, 2 hr pre-dose) | Neutrophil numbers in BAL (% inhibition) (Balb/c mice; 0.2 mg/mL, 2 hr pre-dose) [%] | Neutrophil numbers in BAL (Balb/c mice; 0.2 mg/mL, 8 h pre-dose) | Neutrophil numbers in BAL (% inhibition) (Balb/c mice; 0.2 mg/mL, 8 h pre-dose) [%] | Neutrophil numbers in BAL (Balb/c mice; 1.0 mg/mL, 2 hr pre-dose) | Neutrophil numbers in BAL (% inhibition) (Balb/c mice; 1.0 mg/mL, 2 hr pre-dose) [%] | inhibition of neutrophil accumulation into the BALF (Balb/c mice; administered 2 hr prior to LPS challenge) | effects of treatment on neutrophil accumulation into the BALF (Balb/c mice; dosed 8 hr prior to the endotoxin challenge) | MTT Assay (Viability) 4 h d-U937, percentage loss of cell viability [3] [%] | MTT Assay (Viability) 24 h d-U937, percentage loss of cell viability [3] [%] | IC50 [4] [nM] | % inhibition of Influx (Balb/c mice; [5]) [%] | Neutrophil numbers in BAL 8 h pre-dose (Balb/c mice; [5]) | inhibitory effects versus neutrophil influx into the BALF (Balb/c mice; dosed 8 hr before the inflammatory stimulus) |
| --- | --- | --- | --- | --- | --- | --- | --- | --- | --- | --- | --- | --- | --- | --- | --- | --- | --- | --- |
| CNC(=O)Nc1cc(Oc2ccc(NC(=O)Nc3cc(C(C)(C)C)nn3-c3ccc(OC)cc3)c(Cl)c2Cl)ccn1 [Example 9, N-Methyl-N′-4-(4-(3-(3-tert-butyl-1-p-anisyl-1H-pyrazol-5-yl)ureido)-2,3-dichlorophen-1-yloxy)pyridin-2-ylurea] | 0.3 | 19.1 | 14.98 ± 2.25 × 10^5/mL | 11 | 8.75 ± 1.38 × 10^5/mL | 48 | 13.44 ± 2.03 × 10^5/mL | 20 | 5.80 ± 1.18 × 10^5/mL | 66 | dose-dependent inhibition | sustained and still detectable | −26.8 | 65.3 | 1 | – | – | – |
| COc1ccc(-n2nc(C(C)(C)C)cc2NC(=O)Nc2ccc(Oc3ccnc(NC(=O)N4CCCC4)c3)c(Cl)c2Cl)cc1 [Example 76, N-(4-(4-(3-(3-(tert-butyl)-1-(4-methoxyphenyl)-1H-pyrazol-5-yl)ureido)-2,3-dichlorophenoxy)pyridin-2-yl)pyrrolidine-1-carboxamide] | 0.3 | 21 | – | – | – | – | – | – | – | – | – | – | −25.5 | 27.2 | 0.6 | 8 | 12.94 ± 2.41 × 10^5/mL | inhibitory effects |
